# Measured values published in US6489340B1, “Macrolide compounds for inducing chondrogenic differentiation” (Fujisawa Pharmaceutical., Ltd., priority 1999, dated 2002).
# Tested on: ATDC5 cells
# Test: Induction of chondrogenic differentiation of ATDC5 cells (Alcian blue staining, proteoglycan amount)
# Assay type: cell-based
# Conditions: ATDC5 cells incubated 24 days; Alcian blue dye measured at 620 nm; FK506 1-1000 ng/ml
# Method: The inducing activity by FK506 Substance on chondrogenic differentiation was evaluated in accordance with the below-mentioned method. (1) The ATDC5 cell line provided by RIKEN Cell Bank (Tsukuba, Japan) was grown in a 1:1 mixture of Dulbecco's modified Eagle's medium and Ham's F12 medium (Nikken Biomedical Laboratory, Kyoto, Japan) supplemented with 10 % heat-inactivated fetal bovine serum (Intergen, Purchase, N.Y.). […] (2) The above ATDC5 cells were plated in 12-multiwell plastic plate at a density of 1×10^5 cells/well in the medium. After 4 hr, the medium was replaced with fresh medium containing FK506 or Cyclosporin A (CsA), and the culture was continued for a 24 days with medium change every 2 or 3 days. Cells were fixed with methanol and stained 0.1% Alcian blue (Sigma Chemical Co., St. Louis, Mo.) dissolved in 0.1 M hydrochloric acid for 16 hr at room temperature. Cells were then rinsed three times with distilled water, and the amount of cell-associated dye was measured at 620 nm after extraction with 6 M guanidine-HCl (300 μl/well). ATDC5 cells were incubated with FK506 or CsA for 24 days and the amount of proteoglycan was assayed.
row,Compound,inducing activity on chondrogenic differentiation (differentiation into chondrocyte; amount of proteoglycan)
1,"C=CC[C@@H]1/C=C(\C)C[C@H](C)C[C@H](OC)[C@H]2O[C@@](O)(C(=O)C(=O)N3CCCC[C@H]3C(=O)O[C@H](/C(C)=C/[C@@H]3CC[C@@H](O)[C@H](OC)C3)[C@H](C)[C@@H](O)CC1=O)[C@H](C)C[C@@H]2OC [FK506, 17-allyl-1,14-dihydroxy-12-[2-(4-hydroxy-3-methoxycyclohexyl) -1-methylvinyl]-23,25-dimethoxy-13,19,21,27-tetramethyl-11, 28-dioxa-4-azatricyclo [22.3.1.0^4,9]octacos-18-ene-2,3,10,16-tetraone]",induced differentiation into chondrocyte in a concentration-dependent manner
2,Cyclosporin A [CsA],did not induce the differentiation
